Experiment [1] has as its target T1, PDZ2 domain of ZO1 (Homo sapiens, UniProt Q07157, F207W). The experiment can be described thus: biochemical. Format: binding.
Experiment [2] concerns the target T1, PDZ2 domain of ZO1. The experiment can be described thus: biochemical. The format is binding. Conditions: pH 7.

Several values for one entry are separate records, joined by “and”; a condition that tells them apart may be missing. Equal values may be shown once. Residues, ends and D or L forms follow the SMILES beside them. *: point of attachment. Dansyl = CN(C)c1cccc2c(S(=O)(=O)*)cccc12

Broadly, the Kd is the constant that tells how readily two partners part at equilibrium. By koff is commonly meant the rate constant with which the complex falls apart. The low end stands for a long-lived complex, the high end for a short-lived complex.

T1 sequence (Q07157 186-264 F207W limits assumed): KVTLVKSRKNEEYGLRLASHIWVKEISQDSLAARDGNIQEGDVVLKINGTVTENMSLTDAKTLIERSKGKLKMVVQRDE

Compound `CC(C)C[C@H](NC(=O)[C@@H]1CCCN1C(=O)[C@@H]1CCCN1C(=O)[C@H](CCCCN)NC(=O)[C@H](CO)NS(=O)(=O)c1cccc2c(N(C)C)cccc12)C(=O)N1CCC[C@H]1C(=O)N1CCC[C@H]1C(=O)N[C@@H](CC(=O)O)C(=O)N[C@@H](CCC(=O)O)C(=O)N[C@@H](Cc1c[nH]c2ccccc12)C(=O)N[C@H](C(=O)O)C(C)C` [MERS-CoV E peptide] (Dansyl-SKPPLPPDEWV-OH) yielded a Kd in experiment [1] of 14 ± 1 µM. This compound gave a koff in experiment [2] of 154 ± 3 s⁻¹.
Consider `CC(C)C[C@H](NC(=O)[C@H](CC(=O)O)NC(=O)[C@@H]1CCCN1C(=O)[C@@H](NC(=O)CNC(=O)[C@H](CCC(=O)O)NC(=O)[C@H](CO)NC(=O)[C@H](CO)NC(=O)[C@H](CC(N)=O)NS(=O)(=O)c1cccc2c(N(C)C)cccc12)C(C)C)C(=O)N[C@@H](CC(C)C)C(=O)N[C@H](C(=O)O)C(C)C` [SARS-CoV E peptide] (Dansyl-NSSEGVPDLLV-OH), for which, in experiment [1], the Kd is 4.7 µM and 5 µM and 8.6 µM. Also, in experiment [2], the koff was 9 s⁻¹ and 7.0 ± 0.1 s⁻¹ and 6.9 ± 0.1 s⁻¹ and 6.2 ± 0.1 s⁻¹.
For `CC(C)C[C@H](NC(=O)[C@H](CC(=O)O)NC(=O)[C@@H]1CCCN1C(=O)[C@@H](NC(=O)[C@H](CCCNC(=N)N)NC(=O)[C@H](CO)NC(=O)[C@H](CO)NC(=O)[C@H](CC(N)=O)NS(=O)(=O)c1cccc2c(N(C)C)cccc12)C(C)C)C(=O)N[C@@H](CC(C)C)C(=O)N[C@H](C(=O)O)C(C)C` [SARS-CoV-2 E peptide] (Dansyl-NSSRVPDLLV-OH), in experiment [1], the Kd was 15.8 µM and 17.4 µM and 15.2 µM. Further, the koff in experiment [2] is 9.5 s⁻¹ and 8.7 ± 0.2 s⁻¹ and 6.8 ± 0.1 s⁻¹ and 9.1 ± 0.2 s⁻¹.
For the compound ENVGLMQQQK [reference compound], in experiment [1] (pH 7), the “change in fluorescence upon binding (negative control)” value is on record as “no change in fluorescence upon binding”.
